Like-named read-outs stand apart in the source and are kept apart here.
What was measured:
[1] = test system: CD3+ΔCD19+ iCasp9 T cells / GvHD; assay: Phase I clinical trial of allodepleted T cells transduced with iCasp9 after haploidentical stem cell transplantation; type: in vivo, human
From the text: This example presents results of a phase 1 clinical trial using an alternative suicide gene strategy. Briefly, donor peripheral blood mononuclear cells were co-cultured with recipient irradiated EBV-transformed lymphoblastoid cells (40:1) for 72 hrs., allodepleted with a CD25 immunotoxin and then transduced with a retroviral supernatant carrying the iCasp9 suicide gene and a selection marker (ΔCD19); ΔCD19 allowed enrichment to >90% purity via immunomagnetic selection.
Patients developing grade 1 GvHD were treated with 0.4 mg/kg AP1903 as a 2-hour infusion.
Three patients received iCasp9^+ T cells after haplo-CD34^+ stem cell transplantation (SCT), at dose levels between about 1×10^6 to about 3×10^6 cells/kg.

[2] = target: wild-type phenylalanine 36 FKBP12 (Homo sapiens, UniProt P62942); details: cited from earlier work
cells = assay: Rimiducid amount needed in vitro for effective signaling of cells; type: cell-based
Method: This equates to 14-140 μg/L or ˜0.014-0.14 mg/kg ([…]). The dosage may vary according to the application, and may, in certain examples, be more in the range of 0.1-10 nM, or in the range of 50-150 nM, 10-200 nM, 75-125 nM, 100-500 nM, 100-600 nM, 100-700 nM, 100-800 nM, or 100-900 nM.

[3] = cited from earlier work; for safety and tolerability (in words): healthy volunteers
[4] = test system: HPAC pancreatic cancer cells; assay: T cell anti-tumor assay: PSCA CAR-T cells with iM-X cocultured with HPAC-RFP cells (IncuCyte); type: cell-based, human; details: 1 nM
Method: The HPAC PSCA^+ tumor cells were stably labeled with nuclear-localized RFP protein using the NucLight™ Red Lentivirus Reagent (Essen Bioscience, 4625). To set up the coculture, 4000 HPAC-RFP cells were seeded per well of 96-well plates in 100 μl of CTL medium without IL-2 for at least 4 hours to allow tumor cells to adhere. After transduction with the appropriate retrovirus and having been allowed to rest for at least 7 days in culture, T were seeded according to various E:T ratios in the HPAC-RFP-containing 96-well plates. […] Each plate was set up in duplicates, one plate to monitor with the IncuCyte and one plate for supernatant collection for ELISA assay on day 2. The plates were centrifuged for 5 min at 400×g and placed inside the IncuCyte (Dual Color Model 4459) to monitor red fluorescence (and green fluorescence if T cells were labeled with GFP-Ffluc) every 2-3 hours for a total of 7 days at 10× objective. Image analysis was performed using the “HPAC-RFP-_TcellsGFP_10×_MLD” processing definition. On day 7, HPAC-RFP cells were analyzed using the “Red Object Count (1/well)” metric. Also on day 7, 0 or 10 nM of suicide drug were added to each well of the coculture and placed back in the IncuCyte to monitor T cell elimination. On day 8, Tcell-GFP cells were analyzed using the “Total Green Object Integrated Intensity” metric. […]

wild-type phenylalanine 36 FKBP12, sequence (P62942 whole entry): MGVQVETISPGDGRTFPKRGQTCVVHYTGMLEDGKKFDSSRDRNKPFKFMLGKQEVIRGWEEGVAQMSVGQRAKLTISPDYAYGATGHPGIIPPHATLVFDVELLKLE

In the case of CC[C@H](C(=O)N1CCCC[C@H]1C(=O)O[C@H](CCc1ccc(OC)c(OC)c1)c1cccc(OCC(=O)NCCNC(=O)COc2cccc([C@@H](CCc3ccc(OC)c(OC)c3)OC(=O)[C@@H]3CCCCN3C(=O)[C@@H](CC)c3cc(OC)c(OC)c(OC)c3)c2)c1)c1cc(OC)c(OC)c(OC)c1 (relative stereo) [rimiducid, 2-Piperidinecarboxylic acid, 1-[(2S)-1-oxo-2-(3,4,5-trimethoxyphenyl)butyl]-, 1,2-ethanediylbis [imino(2-oxo-2,1-ethanediyl)oxy-3,1-phenylene[(1R)-3-(3,4-Dimethoxyphenyl)propylidene]] ester, [2S-[1(R*),2R*[S*[S*[1(R*),2R1]]]]]-(9C1)], the “time to resolution of skin and liver GvHD” value ([1]; after rimiducid administration) is reported as ≤ 24 h, the “ablation of CD3+ΔCD19+ cells” value ([1]; within 30 minutes of infusion, two patients with grade I/II GvHD) is reported as > 90% and the “further reduction of CD3+ΔCD19+ cells” value ([1]; within 24 hours) is reported as “further log reduction”. The “binding to FKBP12 (in words)” value [2] was “not able to bind”, the “amount needed for effective signaling, converted” value (cells) was 0.014 to 0.14 mg/kg and the “amount needed in vitro for effective signaling of cells” value (cells) was 10 to 100 nM. For the same compound, the “amount needed for effective signaling, converted” value (cells; MW 1412 Da) was 14 to 140 µg/L, the “duration of the adverse event” value ([3]; 1.0 mg/kg) was 32 min and the “onset of the adverse event after start of infusion” value ([3]; 1.0 mg/kg) was 3 min. The “mean Cmax” value ([3]; 0.01-1.0 mg/kg dose range, infused IV over 2 hours) was 10 to 1275 ng/mL, the “plasma levels versus dose” value ([3]; 0.01-1.0 mg/kg) was “directly proportional to dose” and the “adverse event considered possibly related” value ([3]; 1 volunteer at 1.0 mg/kg) was “vasodilatation”. The “plasma level, % of maximal concentration” value ([3]; 0.5 hours post-dose) was 18%, the “plasma level, % of maximal concentration” value ([3]; 0.5 hours post-dose, listed as Rimiducid) was “approximately 18%” and the “plasma level, % of maximal concentration” value ([3]; 2 hours post-dose) was ~7%. The “plasma level, % of maximal concentration” value ([3]; 10 hours post-dose) was ~1%, the well-tolerated dose ([3]; Phase I study) was “up to 1 mg/kg” and the “incidence of adverse events” value ([3]; following each treatment) was “very low”. For the same compound, the “safety and tolerability (in words)” value ([3]; 0.01-1.0 mg/kg) was “No significant adverse effects”, the “safety and tolerability (in words)” value ([3]; 0.01-1.0 mg/kg, listed as AP1903) was “No serious adverse events” and the “pharmacokinetic profile (in words)” value ([3]; human, in vivo) was “favorable pharmacokinetic profile”. The “effect on cell growth of tumor or T cell” value ([4]; Not Transduced (NT) primary T cells) was “did not affect the cell growth” and the “effect on T cell efficacy” value ([4]; T cells expressing the inducible chimeric signaling polypeptide) was “augmented T cell efficacy”.

Reference: patent US20210147507A1, “METHODS TO AUGMENT OR ALTER SIGNAL TRANSDUCTION” (Bellicum Pharmaceuticals, Inc., priority 2017, published 2021)
